Data from paper PMC6547681 (Nature Communications, 2019).

System: BCL-2 G101V
Experiment: Steady-state competition SPR against immobilised BIMBH3 peptide, BCL-2 G101V
Type: binding, human
Method: SPR experiments were performed as previously described. […] The lowest concentrations used in direct binding experiments were 1 nM for BIAcore 4000 and 0.1 nM for BIAcore S200 instruments, concentrations below these were below the sensitivity thresholds for the instruments. […] Direct binding experiments were fitted to a 1:1 binding site kinetic model, fitting on and off rates, in BIAevaluation software. For competition experiments steady-state responses were determined in BIAevaluation software according to the software defaults in affinity evaluation mode averaging responses for 5 sec. […] All affinity measurements were performed in at least two independent experiments using independent protein preparations.

O=C(c1cc(-c2cc3c(cc2C(=O)N2Cc4ccccc4C[C@H]2CN2CCOCC2)OCO3)n2c1CCCC2)N(c1ccccc1)c1ccc(O)cc1 [S55746]
S55746 binding weaker than venetoclax (BCL-2 G101V): > 10 fold
Raw data values in Figure 3g (SPR response) (S55746 concentration 20, BCL-2 concentration 10 nM, independent experiment 1): 59.4981
Raw data values in Figure 3g (SPR response) (S55746 concentration 20, BCL-2 concentration 10 nM, independent experiment 2): 173.158
Raw data values in Figure 3g (SPR response) (S55746 concentration 20, BCL-2 concentration 10 nM, independent experiment 3): 34.4335
Raw data values in Figure 3g (SPR response) (S55746 concentration 20, BCL-2 concentration 20 nM, independent experiment 1): 71.3826
Raw data values in Figure 3g (SPR response) (S55746 concentration 20, BCL-2 concentration 20 nM, independent experiment 2): 232.183
Raw data values in Figure 3g (SPR response) (S55746 concentration 20, BCL-2 concentration 20 nM, independent experiment 3): 41.9552
Raw data values in Figure 3g (SPR response) (S55746 concentration 20, BCL-2 concentration 30 nM, independent experiment 1): 77.2987
Raw data values in Figure 3g (SPR response) (S55746 concentration 20, BCL-2 concentration 30 nM, independent experiment 2): 262.629
Raw data values in Figure 3g (SPR response) (S55746 concentration 20, BCL-2 concentration 30 nM, independent experiment 3): 45.3747
Raw data values in Figure 3g (SPR response) (S55746 concentration 20, BCL-2 concentration 40 nM, independent experiment 1): 80.4228
Raw data values in Figure 3g (SPR response) (S55746 concentration 20, BCL-2 concentration 40 nM, independent experiment 2): 280.533
Raw data values in Figure 3g (SPR response) (S55746 concentration 20, BCL-2 concentration 40 nM, independent experiment 3): 47.3992
Raw data values in Figure 3g (SPR response) (S55746 concentration 20, BCL-2 concentration 50 nM, independent experiment 1): 83.2844
Raw data values in Figure 3g (SPR response) (S55746 concentration 20, BCL-2 concentration 50 nM, independent experiment 2): 293.102
Raw data values in Figure 3g (SPR response) (S55746 concentration 20, BCL-2 concentration 50 nM, independent experiment 3): 48.7371
Raw data values in Figure 3g (SPR response) (S55746 concentration 20, BCL-2 concentration 60 nM, independent experiment 1): 85.1797
Raw data values in Figure 3g (SPR response) (S55746 concentration 20, BCL-2 concentration 60 nM, independent experiment 2): 302.908
Raw data values in Figure 3g (SPR response) (S55746 concentration 20, BCL-2 concentration 60 nM, independent experiment 3): 49.7741
Raw data values in Figure 3g (SPR response) (S55746 concentration 20, BCL-2 concentration 70 nM, independent experiment 1): 86.4751
Raw data values in Figure 3g (SPR response) (S55746 concentration 20, BCL-2 concentration 70 nM, independent experiment 2): 309.956
Raw data values in Figure 3g (SPR response) (S55746 concentration 20, BCL-2 concentration 70 nM, independent experiment 3): 50.4376
Raw data values in Figure 3g (SPR response) (S55746 concentration 20, BCL-2 concentration 80 nM, independent experiment 1): 87.9511
Raw data values in Figure 3g (SPR response) (S55746 concentration 20, BCL-2 concentration 80 nM, independent experiment 2): 316.608
Raw data values in Figure 3g (SPR response) (S55746 concentration 20, BCL-2 concentration 80 nM, independent experiment 3): 51.0592
Raw data values in Figure 3g (SPR response) (S55746 concentration 20, BCL-2 concentration 100 nM, independent experiment 1): 89.5861
Raw data values in Figure 3g (SPR response) (S55746 concentration 20, BCL-2 concentration 100 nM, independent experiment 2): 324.599
Raw data values in Figure 3g (SPR response) (S55746 concentration 20, BCL-2 concentration 100 nM, independent experiment 3): 51.7173
Raw data values in Figure 3g (SPR response) (S55746 concentration 20, BCL-2 concentration 150 nM, independent experiment 1): 91.8559
Raw data values in Figure 3g (SPR response) (S55746 concentration 20, BCL-2 concentration 150 nM, independent experiment 2): 337.351
Raw data values in Figure 3g (SPR response) (S55746 concentration 20, BCL-2 concentration 150 nM, independent experiment 3): 52.8108
Raw data values in Figure 3g (SPR response) (S55746 concentration 20, BCL-2 concentration 200 nM, independent experiment 1): 93.1192
Raw data values in Figure 3g (SPR response) (S55746 concentration 20, BCL-2 concentration 250 nM, independent experiment 2): 349.701
Raw data values in Figure 3g (SPR response) (S55746 concentration 20, BCL-2 concentration 250 nM, independent experiment 3): 53.5404
Raw data values in Figure 3g (SPR response) (S55746 concentration 40, BCL-2 concentration 10 nM, independent experiment 1): 53.0775
Raw data values in Figure 3g (SPR response) (S55746 concentration 40, BCL-2 concentration 10 nM, independent experiment 2): 142.314
Raw data values in Figure 3g (SPR response) (S55746 concentration 40, BCL-2 concentration 10 nM, independent experiment 3): 29.9924
Raw data values in Figure 3g (SPR response) (S55746 concentration 40, BCL-2 concentration 20 nM, independent experiment 1): 66.1797
Raw data values in Figure 3g (SPR response) (S55746 concentration 40, BCL-2 concentration 20 nM, independent experiment 2): 204.771
Raw data values in Figure 3g (SPR response) (S55746 concentration 40, BCL-2 concentration 20 nM, independent experiment 3): 38.5613
Raw data values in Figure 3g (SPR response) (S55746 concentration 40, BCL-2 concentration 30 nM, independent experiment 1): 73.4709
Raw data values in Figure 3g (SPR response) (S55746 concentration 40, BCL-2 concentration 30 nM, independent experiment 2): 240.258
Raw data values in Figure 3g (SPR response) (S55746 concentration 40, BCL-2 concentration 30 nM, independent experiment 3): 42.9042
Raw data values in Figure 3g (SPR response) (S55746 concentration 40, BCL-2 concentration 40 nM, independent experiment 1): 77.7102
Raw data values in Figure 3g (SPR response) (S55746 concentration 40, BCL-2 concentration 40 nM, independent experiment 2): 263.387
Raw data values in Figure 3g (SPR response) (S55746 concentration 40, BCL-2 concentration 40 nM, independent experiment 3): 45.6376
Raw data values in Figure 3g (SPR response) (S55746 concentration 40, BCL-2 concentration 50 nM, independent experiment 1): 81.3114
Raw data values in Figure 3g (SPR response) (S55746 concentration 40, BCL-2 concentration 50 nM, independent experiment 2): 278.636
Raw data values in Figure 3g (SPR response) (S55746 concentration 40, BCL-2 concentration 50 nM, independent experiment 3): 47.2724
Raw data values in Figure 3g (SPR response) (S55746 concentration 40, BCL-2 concentration 60 nM, independent experiment 1): 83.6106
Raw data values in Figure 3g (SPR response) (S55746 concentration 40, BCL-2 concentration 60 nM, independent experiment 2): 291.594
